Results taken from patent publication US20060058390A1 (priority 2004, published 2006).
Converted amounts (≈) assume the structure as drawn.

Columns and labels:
[1] = system: oxidative stress-induced ototoxicity and nephrotoxicity; details: in vivo; cited from earlier work
[2] = D-methionine IV 150 mg/kg, PO 150 or 300 mg/kg
Protocol: (§1) Twenty-six male Sprague-Dawley rats weighing approximately 200 to 300 g were used for the study. The jugular vein of six animals were cannulated and the rest of the animals were used without any further preparation.
(§2) Dosing was conducted on two occasions. […] The drug was prepared in a suspension formulation in accordance with the present invention. The blood samples (approximately 0.5 mL/sample) were collected from each animal at predose, 15, 30 minutes, 1, 2, 4 and 6 hours postdose into microtainer tubes containing lithium heparin as an anticoagulant. Replacement blood was infused into each animal following each blood draw. […] The drug was prepared in a solution formulation. […] Blood samples were collected from each animal via the orbital sinus at predose, 2, 15, 30 minutes, 1, 2, 4 and 6 hours postdose. Each animal was bled twice. The blood was centrifuged immediately and the resulting plasma in tubes was flash frozen in liquid nitrogen and stored at approximately −70° C. until analysis.

[3] = system: cisplatin induced hair cell loss; details: rat model; cited from earlier work
[4] = humans, cited from earlier work
[5] = aqueous solutions; cited from earlier work
[6] = in vivo; details: for AUC(0-inf): AUC(0-inf) of D-Methionine; for concentration at 0 h: 0.00 h (predose); for concentration at 0.5 h: 0.50 h; for Cmax: Cmax of D-Methionine
Protocol: as §1, §2
L-Methinione can also be detected under the same HPLC conditions.
Descriptive pharmacokinetic parameters were determined by standard model independent methods (Gibaldi, M. and Perrier, D. Pharmacokinetics, Second Edition, Marcel Dekker, Inc., New York, 1982) based on the mean plasma concentration-time data. The plasma concentrations were rounded to one decimal place before the calculation. Plasma samples with concentrations below the quantifiable limit (BQL) were assigned values of zero for the calculation of mean plasma concentration.

[7] = male, Sprague-Dawley, rat, plasma, iv, 150 mg/kg, Mean Plasma Concentrations of D-Methionine, IV 150 mg/kg, solution
[8] = male, Sprague-Dawley, rat, plasma, po, 150 mg/kg, PO 150 mg/kg, solution
[9] = male, Sprague-Dawley, rat, plasma, po, 150 mg/kg, PO 150 mg/kg, suspension
[10] = male, Sprague-Dawley, rat, plasma, po, 150 mg/kg, Mean Plasma Concentrations of D-Methionine, PO 150 mg/kg, solution
[11] = male, Sprague-Dawley, rat, plasma, po, 150 mg/kg, Mean Plasma Concentrations of D-Methionine, PO 150 mg/kg, suspension
[12] = male, Sprague-Dawley, rat, plasma, po, 300 mg/kg, PO 300 mg/kg, suspension
[13] = male, Sprague-Dawley, rat, plasma, po, 300 mg/kg, Mean Plasma Concentrations of D-Methionine, PO 300 mg/kg, suspension

For `CSCC[C@@H](N)C(=O)O` [D-Methionine, D-methionine], the “effect on oxidative stress-induced ototoxicity and nephrotoxicity associated with cisplatin” value [1] is listed as “effectively prevent”, the mortality [2] is listed as “no mortality occurred” and the “effect on cisplatin damage to the stria vascularis” value [3] is listed as “markedly reduce cisplatin damage to the stria vascularis”. The “effect on cisplatin induced hair cell loss” value [3] was “prevent cisplatin induced hair cell loss”, the “plasma levels compared with L-methionine” value [4] was “higher plasma levels than L-methionine” and the “fraction excreted without conversion to the L-isomer” value ([4]; except in L-methionine deprivation) was 60-70%. The solubility [5] was 50 mg/mL (≈ 335 mM), the “time point at which Cmax was observed” value ([6]; PO 150 mg/kg, solution, first collection time point) was 30 min and the “first-pass metabolism suggested by systemic clearance” value ([6]; from CL after IV 150 mg/kg) was “will not be subjected to extensive first-pass metabolism”. It also gave a clearance ([6]; male, Sprague-Dawley, rat, plasma, iv, 150 mg/kg) of 9.28 mL/min/kg, an AUC(0-inf) ([6]; male, Sprague-Dawley, rat, plasma, iv, 150 mg/kg, IV 150 mg/kg, solution) of 269 µg·h/mL and a concentration at 0 h [6, 7] of 0 ng/mL. It also gave a concentration at 0.03 h ([6]; male, Sprague-Dawley, rat, plasma, iv, 150 mg/kg, Mean Plasma Concentrations of D-Methionine, IV 150 mg/kg, solution, 0.03 h) of 471 ng/mL, a concentration at 0.25 h [6, 7] of 220 ng/mL and a concentration at 0.5 h [6, 7] of 106 ng/mL. For the same compound, the concentration at 1 h [6, 7] was 64 ng/mL, the concentration at 2 h [6, 7] was 32.2 ng/mL and the concentration at 4 h [6, 7] was 6.13 ng/mL. It also gave a concentration at 6 h [6, 7] of 1.45 ng/mL, a half-life ([6]; male, Sprague-Dawley, rat, plasma, iv, 150 mg/kg, T1/2 (terminal half-life) of D-Methionine, IV 150 mg/kg, solution) of 54 min and a bioavailability ([6]; male, Sprague-Dawley, rat, plasma, oral, 150 mg/kg) of 61.3%. The Tmax ([6]; male, Sprague-Dawley, rat, plasma, po, 150 mg/kg) was 30 min, the AUC(0-inf) [6, 8] was 165 µg·h/mL and the AUC(0-inf) [6, 9] was 120 µg·h/mL. The Cmax [6, 8] was 77.1 µg/mL, the Cmax [6, 9] was 71.1 µg/mL and the concentration at 0 h [6, 10] was 0 ng/mL. The concentration at 0.5 h [6, 10] was 77.1 ng/mL, the concentration at 1 h [6, 10] was 54.1 ng/mL and the concentration at 2 h [6, 10] was 41.7 ng/mL. It also gave a concentration at 4 h [6, 10] of 7.67 ng/mL, a concentration at 6 h [6, 10] of 3.4 ng/mL and a concentration at 12 h ([6]; male, Sprague-Dawley, rat, plasma, po, 150 mg/kg, Mean Plasma Concentrations of D-Methionine, PO 150 mg/kg, solution, 12.00 h) of 0 ng/mL. For the same compound, the concentration at 0 h [6, 11] was 0 ng/mL, the concentration at 0.25 h [6, 11] was 69.5 ng/mL and the concentration at 0.5 h [6, 11] was 71.1 ng/mL. For the same compound, the concentration at 1 h [6, 11] was 44.1 ng/mL, the concentration at 2 h [6, 11] was 20.9 ng/mL and the concentration at 4 h [6, 11] was 4 ng/mL. For the same compound, the concentration at 6 h [6, 11] was 1.7 ng/mL, the half-life ([6]; male, Sprague-Dawley, rat, plasma, po, 150 mg/kg, T1/2 (terminal half-life) of D-Methionine, PO 150 mg/kg, solution) was 66 min and the half-life ([6]; male, Sprague-Dawley, rat, plasma, po, 150 mg/kg, T1/2 of D-Methionine, PO 150 mg/kg, suspension) was 60 min. The Tmax ([6]; male, Sprague-Dawley, rat, plasma, po, 300 mg/kg) was 30 min, the AUC(0-inf) [6, 12] was 359 µg·h/mL and the Cmax [6, 12] was 175 µg/mL. For the same compound, the concentration at 0 h [6, 13] was 0 ng/mL, the concentration at 0.25 h [6, 13] was 120 ng/mL and the concentration at 0.5 h [6, 13] was 175 ng/mL. It also gave a concentration at 1 h [6, 13] of 128 ng/mL, a concentration at 2 h [6, 13] of 71.4 ng/mL and a concentration at 4 h [6, 13] of 22.7 ng/mL. For the same compound, the concentration at 6 h [6, 13] was 5.5 ng/mL, the half-life ([6]; male, Sprague-Dawley, rat, plasma, po, 300 mg/kg, T1/2 of D-Methionine, PO 300 mg/kg, suspension) was 66 min and the “terminal half-life (conclusion)” value ([6]; rats, IV and PO) was “approximately one hour”.
